Experimental findings from PubChem BioAssay AID200 (DTP/NCI, 2004) are described below.

The structures appear in SMILES notation. Several values for one entry are separate records, joined by “and”; a condition that tells them apart may be missing. Equal entries are not always repeated. Inconclusive results and toxic doses are left out. Where a SMILES comes first, the peptide text is derived from it. [ ]: non-standard residue; d: D form. The star is where a group is joined. Tyr(3,5-I2) = N[CH](Cc1cc(I)c(O)c(I)c1)C(=O)O; Cbz = O=C(OCc1ccccc1)*

For the assay, the system named is B6C3F1 mice, B16 melanoma ip, median survival T/C. Put plainly: NCI In Vivo Anticancer Drug Screen. Data for tumor model B16 Melanoma (intraperitoneal) in B6C3F1 mice. The conditions noted are these: endpoint: median survival time, schedule: Q01DX009 (ip), higher = longer survival. In outline: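 Antitumor effect was judged in mice with transplanted tumors by dividing the treated group's survival measure by that of vehicle controls.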

The mark [1] stands for this setting: dose: 12.5 mg/kg/injection, vehicle: saline.
Where [2] appears, read: dose: 25.0 mg/kg/injection, vehicle: saline.
Setting [3] is: dose: 50.0 mg/kg/injection, vehicle: saline.
[4] abbreviates: dose: 100.0 mg/kg/injection, vehicle: saline.
[5] abbreviates: dose: 200.0 mg/kg/injection, vehicle: saline.
Setting [6] is: dose: 50.0 mg/kg/injection, vehicle: Klucel (hydroxypropylcellulose) (HPC).
Setting [7] is: dose: 100.0 mg/kg/injection, vehicle: Klucel (hydroxypropylcellulose) (HPC).
Setting [8] is: dose: 200.0 mg/kg/injection, vehicle: Klucel (hydroxypropylcellulose) (HPC).
The mark [9] stands for this setting: dose: 100.0 mg/kg/injection, vehicle: saline with Tween-80.
[10] abbreviates: dose: 200.0 mg/kg/injection, vehicle: saline with Tween-80.
The mark [11] stands for this setting: dose: 400.0 mg/kg/injection, vehicle: Klucel (hydroxypropylcellulose) (HPC).

Consider `ClCCCN1CCN(CCCl)CC1`, for which the T/C by setting is: (dose: 1.25 mg/kg/injection, vehicle: saline) 98 % of control; (dose: 2.5 mg/kg/injection, vehicle: saline) 124 % of control and 99 % of control.
In the case of `C=C1C(=O)O[C@@H]2C[C@@H](C)[C@@H]3C=CC(=O)[C@@]3(C)[C@@H](OC(=O)CC(=O)O[C@H]3[C@@H]4C(=C)C(=O)O[C@@H]4C[C@@H](C)[C@@H]4C=CC(=O)[C@]43C)[C@H]12`, the T/C is 88 % of control (dose: 0.25 mg/kg/injection, vehicle: saline with Tween-80); 96 % of control (dose: 0.5 mg/kg/injection, vehicle: saline with Tween-80); 102 % of control (dose: 1.0 mg/kg/injection, vehicle: saline with Tween-80); 110 % of control (dose: 2.0 mg/kg/injection, vehicle: saline with Tween-80); 116 % of control (dose: 4.0 mg/kg/injection, vehicle: saline with Tween-80).
Regarding `CCOC(=O)C(N)CSC(=O)NC` (configuration not stated), the T/C by setting is: under setting [1], 103 % of control and 106 % of control; under setting [2], 108 % of control and 92 % of control; under setting [3], 103 % of control and 106 % of control; under setting [4], 108 % of control and 93 % of control; under setting [5], 109 % of control; (dose: 400.0 mg/kg/injection, vehicle: saline) 124 % of control.
Consider `NCC(=O)NC(Cc1ccc(O)cc1)C(=O)NCC(=O)O` (configuration not stated) (HELM PEPTIDE1{G.[O=C(C(Cc1ccc(O)cc1)N[*:1])[*:2]].G}$$$$V2.0), for which the T/C by setting is: under setting [6], 96 % of control; under setting [7], 98 % of control; under setting [8], 106 % of control.
Consider `Cc1ccccc1N(C=O)c1ccccc1C`, for which the T/C reads like this: under setting [9], 97 % of control; under setting [10], 97 % of control; (dose: 400.0 mg/kg/injection, vehicle: saline with Tween-80) 97 % of control.
As for `Cc1ccc([NH-])c([NH-])c1.[Cl][Pt+2][Cl]`, the T/C runs as follows: (dose: 0.63 mg/kg/injection, vehicle: saline with Tween-80) 114 % of control; (dose: 5.0 mg/kg/injection, vehicle: saline with Tween-80) 157 % of control; (dose: 10.0 mg/kg/injection, vehicle: saline with Tween-80) 160 % of control.
Take `O=CC(=O)c1ccc(O)cc1`: the T/C was 94 % of control (dose: 6.25 mg/kg/injection, vehicle: saline); 99 % of control under setting [1]; 108 % of control under setting [2]; 120 % of control under setting [3].
Consider `COc1ccc(-c2c3c(cc4cc5c(cc24)OCO5)C(=O)OC3)cc1OC`, for which the T/C (dose: 6.0 mg/kg/injection, vehicle: Klucel (hydroxypropylcellulose) (HPC)) was 100 % of control; the T/C (dose: 12.0 mg/kg/injection, vehicle: Klucel (hydroxypropylcellulose) (HPC)) was 117 % of control and 105 % of control; the T/C (dose: 24.0 mg/kg/injection, vehicle: Klucel (hydroxypropylcellulose) (HPC)) is 88 % of control and 99 % of control.
In the case of `CC(=O)NC(Cc1ccccc1)C(=O)NC(Cc1cc(I)c(O)c(I)c1)C(=O)O` (configuration not stated) (Ac-Phe-[Tyr(3,5-I2)]-OH; configuration not given here), under setting [11], the T/C is 89 % of control.
Regarding `Nc1cc(Cl)c(N=Nc2ccccc2)c(N)n1`, the T/C runs as follows: under setting [9], 89 % of control; under setting [10], 90 % of control.
On to `O=C(O)c1cc(C(=O)O)c(C(=O)O)cc1C(=O)O.[NH2-].[NH2-].[NH2-].[NH2-].[Pt+2].[Pt+2]`, for which the T/C (dose: 0.12 mg/kg/injection, vehicle: water) is 110 % of control; the T/C (dose: 0.25 mg/kg/injection, vehicle: water) is 104 % of control; the T/C (dose: 0.5 mg/kg/injection, vehicle: water) was 109 % of control and 110 % of control; the T/C (dose: 1.0 mg/kg/injection, vehicle: water) was 114 % of control and 118 % of control; the T/C (dose: 8.0 mg/kg/injection, vehicle: water) is 154 % of control.
`O=C(NC(Cc1cnc[nH]1)C(=O)NC(Cc1ccc(O)cc1)C(=O)O)OCc1ccccc1` (stereo not drawn) (Cbz-His-Tyr-OH; configuration not given here): the T/C under setting [7] is 102 % of control, the T/C under setting [8] was 103 % of control and the T/C under setting [11] was 110 % of control.
Turning to `C=C1CCOC2(C(O)C(C)(O)CO)NC(=O)C1(O)NC2=O` (configuration not stated), the T/C under setting [3] is 97 % of control, the T/C under setting [4] was 95 % of control and the T/C under setting [5] was 99 % of control.
In the case of `O=C1c2ccccc2C(=O)c2c3c(cc(NCCNCCO)c21)N(CCO)CCN3`, the T/C runs as follows: (dose: 25.0 mg/kg/injection, vehicle: DMSO) 108 % of control; (dose: 50.0 mg/kg/injection, vehicle: DMSO) 112 % of control; (dose: 100.0 mg/kg/injection, vehicle: DMSO) 167 % of control.
For `COC1=C(OC)C(=O)C(Sc2ccc3ccccc3c2)=CC1=O`, the T/C by setting is: (dose: 6.25 mg/kg/injection, vehicle: saline with Tween-80) 86 % of control and 97 % of control; (dose: 12.5 mg/kg/injection, vehicle: saline with Tween-80) 95 % of control; (dose: 25.0 mg/kg/injection, vehicle: saline with Tween-80) 96 % of control; (dose: 50.0 mg/kg/injection, vehicle: saline with Tween-80) 86 % of control.
For the compound `CCC1=C[C@H]2CN(CCc3c([nH]c4ccccc34)[C@@](C(=O)OC)(c3cc4c(cc3OC)N(C)[C@H]3[C@@](O)(C(=O)NC)[C@H](OC(C)=O)[C@]5(CC)C=CCN6CC[C@]43[C@@H]65)C2)C1`, the T/C is, setting by setting: (dose: 0.03 mg/kg/injection, vehicle: saline) 117 % of control; (dose: 0.06 mg/kg/injection, vehicle: saline) 118 % of control; (dose: 0.12 mg/kg/injection, vehicle: saline) 170 % of control; (dose: 0.25 mg/kg/injection, vehicle: saline) 182 % of control; (dose: 0.5 mg/kg/injection, vehicle: saline) 238 % of control.
As to `[N-]=[N+]=CC(=O)CCC(NC(=O)OCc1ccccc1)C(=O)OCc1ccccc1` (configuration not stated), the T/C is 93 % of control (dose: 25.0 mg/kg/injection, vehicle: Klucel (hydroxypropylcellulose) (HPC)) and 96 % of control under setting [6].
